Measurements as given in patent publication US20140221485A1, “LIPOPHILIC DOPAMINE DERIVATIVES AND THEIR USE” (NOVALIQ GMBH, priority 2011, published 2014).
Entries after “also recorded” stand apart in the source; their conditions may differ.

How the values were obtained:
[1] = test system: ER stress response element (ESRE); test: ESRE luciferase reporter in transfected endothelial cells; type: cell-based; conditions: stimulated 24 hours
Experimental: The induction of UPR is mediated by the binding of transcription factors to an ER stress response element (ESRE) featured in the UPR (unfolded protein response) target genes. Endothelial cells were transfected by means of lentiviral transfection using a reporter luciferase construct under the control of ESRE responsive elements. After two days, the transfected cells were stimulated for 24 hours with NOD or dopamine or NPD (N-pivaloyl dopamine, also referred to as N-[2-(3,4-dihydroxyphenyl)ethyl]tert-butylamide), or N-[2-(4-hydroxyphenyl)ethyl]octanamide (referred to as NOT), or medium (control). Chemiluminescence activity of the luciferase was then measured.

[2] = test system: Human umbilical vein endothelial cells (HUVEC); test: Hypothermic preservation of HUVEC, LDH release; type: cell-based; conditions: 100 μM for 1 h, then 24 hrs on ice in UW solution
Experimental: The hypothermic preservation properties of NOD, A-NOD and N-pivaloyl dopamine (also referred to as NPD, or N-[2-(3,4-dihydroxyphenyl)ethyl]tert-butylamide) were examined. Human umbilical vein endothelial cells (HUVEC) were seeded in 24 well plates and grown until confluence. Hereafter, HUVEC were stimulated for 1 h with 100 μM of NOD, A-NOD or NPD. Cells that were not treated (Md) served as control. The medium was aspirated and the cells were stored for 24 hrs on ice in University of Wisconsin (UW) solution. Cell damage was assessed by measuring lactate dehydrogenase (LDH) release, using a commercially available LDH release assay (Roche). To this end, 100 μl of supernatant was added to 100 μl of assay reaction mixture. The plates were incubated for 30 minutes and the absorption (OD490) was assessed. All experimental conditions were performed in triplicate.
An increase in LDH activity correlates with the amount of dead or damaged cells.

VCAM-1 = test: TNF-α mediated VCAM-1 expression in HUVEC, immunoblot; type: cell-based, human; conditions: TNF-α 24 h, 100 μM compound
Experimental: (§1) The anti-inflammatory effects of A-NOD and NOD were examined, specifically as to their impact on TNF-α (tumour necrosis factor alpha) mediated VCAM-1 (vascular cell adhesion molecule 1) expression. Human umbilical vein endothelial cells (HUVEC) were cultured until confluence. Hereafter the cells were stimulated for 24 h with TNF-α in the presence or absence of 100 μM NOD or A-NOD. Cells that were not stimulated (M) served as control. Cells were harvested and lysed in Laemli buffer. Hereafter, 20 μL of the lysates were boiled and subjected to SDS-PAGE. The resulting gel was blotted on PVF membranes and the membrane was subsequently incubated overnight with TBS/Tween/5% dry milk powder to block unspecific binding. The upper part of the membrane was probed with an anti-VCAM-1 antibody and the lower part with an anti-HO1 antibody (heme oxygenase-1). After thoroughly washing the membrane was incubated with appropriate HRP conjugates, bands were visualized using chemoluminescence (shown in FIG. 7).

HO1 (heme oxygenase-1) = test: HO1 expression in HUVEC, immunoblot; type: cell-based, human; conditions: TNF-α 24 h, 100 μM compound
Experimental: as §1

DDIT3 = test: UPR target gene transcription by qPCR in endothelial cells; type: cell-based; conditions: 100 μM, 24 h
Experimental: (§2) Endothelial cells were stimulated for 24 h with 100 μM of NOD, NOT, BB, BBNB or BBNO (see Table 1 for compound structures). RNA was isolated from each sample and transcribed into cDNA. Expression of selected UPR target genes was assessed by qPCR.

HSPA5 = test: as above; type: cell-based; conditions: 100 μM, 24 h
Experimental: as §2

HYOU1 = test: as above; type: cell-based; conditions: 100 μM, 24 h
Experimental: as §2

MANF = test: as above; type: cell-based; conditions: 100 μM, 24 h
Experimental: as §2

Lewis rats [3] = test: Effect on body weight in ARF rat model; type: in vivo; conditions: kidneys clamped 45 min, continuous infusion 10 μL/h over 5 days, 40 μmmol/mL
Experimental: (§3) Kidneys of Lewis rats (n=8) were clamped for 45 min to induce acute renal failure (ARF). Afterwards the rats were treated with continuous infusions (10 μL/h over 5 days) of either saline, dopamine or N-octanoyl dopamine (NOD), using an osmotic minipump. The concentration of dopamine and NOD was 40 μmmol/mL. The rats' body weight was monitored for 5 days.

Lewis rats [4] = test: Effect on renal function (serum creatinine) in ARF rat model; type: in vivo; conditions: continuous infusion over 5 days, from day 1 vs saline and day 3 vs dopamine, P<0.05
Experimental: as §3, with “minipump” for “minipump. The concentration of dopamine”, “the same concentrations as in Example 3.” for “NOD was 40 μmmol/mL.”, “renal function, as measured by the serum creatinine concentration,” for “body weight”

Lewis rats [5] = test: Renal histology after ARF (ED1-cell infiltration, necrotic tubulus cells); type: in vivo, rat; conditions: in comparison with saline- and dopamine-treated rats
Excerpt: The kidneys of the Lewis rats of examples 3 and 4 were harvested. The renal tissue was examined with regard to the infiltration by inflammatory ED1-cells and signs of necrotic tubulus cells.

TNF-α = TNF-α activity in renal tissue measured by PCR; type: in vivo, rat; conditions: ARF rats, P<0.01
UPR target genes = test: UPR gene transcription of endothelial cells under normoxic and hypoxic conditions (qPCR); type: cell-based; conditions: 100 μM, 24 h
Experimental: Endothelial cells were cultured for 24 h under normoxic conditions in the presence or absence of 100 μM of NOD or NOT. Cells that were cultured in the absence of either compounds (medium) served as a control. In addition, the cells were cultured under hypoxic conditions for 24 h in the presence or absence of 100 μM NOD or NOT. RNA was isolated and transcribed into cDNA. The expression of a selected set of UPR target genes was assessed by qPCR.

[6] = biological target: T1, protein disulfide isomerase (PDI) (Homo sapiens, UniProt P07237); test: ProteoStat PDI assay kit, fluorescence-based; type: biochemical; conditions: serial dilutions, excitation about 500 nm, emission about 603 nm
T1 construct: purchased
T1 sequence (P07237 18-508): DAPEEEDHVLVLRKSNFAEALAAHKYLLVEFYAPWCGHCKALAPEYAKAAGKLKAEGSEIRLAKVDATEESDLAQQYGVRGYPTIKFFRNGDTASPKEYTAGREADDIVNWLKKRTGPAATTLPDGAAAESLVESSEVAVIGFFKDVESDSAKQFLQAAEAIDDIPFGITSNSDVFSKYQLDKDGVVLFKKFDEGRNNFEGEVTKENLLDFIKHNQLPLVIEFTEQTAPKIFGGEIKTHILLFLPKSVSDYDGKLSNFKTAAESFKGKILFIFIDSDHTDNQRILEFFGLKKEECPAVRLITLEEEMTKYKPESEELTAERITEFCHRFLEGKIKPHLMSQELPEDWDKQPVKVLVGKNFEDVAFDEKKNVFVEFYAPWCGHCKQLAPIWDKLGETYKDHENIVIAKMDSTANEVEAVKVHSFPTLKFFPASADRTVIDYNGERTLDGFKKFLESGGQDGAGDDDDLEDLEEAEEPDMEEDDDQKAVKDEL
Experimental: Modulation of PDI activity by NOD was examined by using a fluorescence-based commercially available ProteoStat™ PDI assay kit and according to the kit protocol. The protocol was applied to serial dilutions of NOD, which were measured for inhibition of PDI activity using a fluorescent microplate reader at an excitation setting of about 500 nm and an emission filter of about 603 nm.

TRPV-1-receptors = TRPV-1-receptors (Homo sapiens, UniProt Q8NER1); conditions: Greffrath et al. 2011; results in desensitization of the receptor; cited from earlier work
Sequence of TRPV-1-receptors (Q8NER1 whole entry): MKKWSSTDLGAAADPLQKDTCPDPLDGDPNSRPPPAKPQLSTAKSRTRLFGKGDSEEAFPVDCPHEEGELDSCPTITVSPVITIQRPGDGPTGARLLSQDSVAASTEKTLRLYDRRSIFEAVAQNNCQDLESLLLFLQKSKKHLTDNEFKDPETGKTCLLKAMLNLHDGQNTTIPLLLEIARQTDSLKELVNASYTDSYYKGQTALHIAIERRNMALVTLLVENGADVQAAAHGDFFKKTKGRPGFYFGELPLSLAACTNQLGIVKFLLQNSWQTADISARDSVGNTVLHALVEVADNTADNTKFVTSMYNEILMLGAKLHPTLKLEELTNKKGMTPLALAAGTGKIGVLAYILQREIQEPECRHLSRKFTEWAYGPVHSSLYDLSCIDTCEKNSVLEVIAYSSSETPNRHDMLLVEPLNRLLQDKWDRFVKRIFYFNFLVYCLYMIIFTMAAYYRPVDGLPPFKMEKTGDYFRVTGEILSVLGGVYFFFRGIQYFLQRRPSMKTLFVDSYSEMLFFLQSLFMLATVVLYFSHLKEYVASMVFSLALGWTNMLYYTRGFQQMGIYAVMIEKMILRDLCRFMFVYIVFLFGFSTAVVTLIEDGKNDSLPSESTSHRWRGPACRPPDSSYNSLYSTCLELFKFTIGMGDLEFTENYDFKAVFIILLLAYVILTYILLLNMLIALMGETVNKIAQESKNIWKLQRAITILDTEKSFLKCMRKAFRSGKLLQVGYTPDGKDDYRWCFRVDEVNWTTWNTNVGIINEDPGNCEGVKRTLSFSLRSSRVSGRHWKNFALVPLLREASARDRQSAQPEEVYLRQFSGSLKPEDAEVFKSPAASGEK

CCCCCCCC(=O)NCCc1ccc(OC(C)=O)c(OC(C)=O)c1 [A-NOD, N-(3,4-bisacetoxyphenylethyl)octanamide]
ESRE-mediated transcription (luciferase chemiluminescence) [1]: did not significantly induce transcription | LDH activity (LDH release, OD490) compared to untreated cell control (Md) [2]: significantly lower | anti-VCAM-1 antibody binding (TNF-α mediated VCAM-1 expression) (VCAM-1): in the absence of A-NOD or NOD showed strong anti-VCAM-1 antibody binding in comparison to the cells co-treated with A-NOD or NOD | anti-HO1 antibody binding (HO1 (heme oxygenase-1)): showed anti-HO1 antibody binding

CCCCNC(=O)c1cc(OC(C)=O)ccc1OC(C)=O [BBNB]
Relative fold-increase of transcription compared to untreated endothelial cells, 2ΔΔ Ct, DDIT3 (DDIT3): 0.90 fold | Relative fold-increase of transcription compared to untreated endothelial cells, 2ΔΔ Ct, HSPA5 (HSPA5): 0.65 fold | Relative fold-increase of transcription compared to untreated endothelial cells, 2ΔΔ Ct, HYOU1 (HYOU1): 0.84 fold | Relative fold-increase of transcription compared to untreated endothelial cells, 2ΔΔ Ct, MANF (MANF): 0.99 fold

CCCCCCCCNC(=O)c1cc(OC(C)=O)ccc1OC(C)=O [BBNO]
Relative fold-increase of transcription compared to untreated endothelial cells, 2ΔΔ Ct, DDIT3 (DDIT3): 3.74 fold | Relative fold-increase of transcription compared to untreated endothelial cells, 2ΔΔ Ct, HSPA5 (HSPA5): 1.08 fold | Relative fold-increase of transcription compared to untreated endothelial cells, 2ΔΔ Ct, HYOU1 (HYOU1): 4.72 fold | Relative fold-increase of transcription compared to untreated endothelial cells, 2ΔΔ Ct, MANF (MANF): 0.96 fold

CC(=O)Oc1ccc(OC(C)=O)c(C(=O)O)c1 [BB]
Relative fold-increase of transcription compared to untreated endothelial cells, 2ΔΔ Ct, DDIT3 (DDIT3): 1.01 fold | Relative fold-increase of transcription compared to untreated endothelial cells, 2ΔΔ Ct, HSPA5 (HSPA5): 0.60 fold | Relative fold-increase of transcription compared to untreated endothelial cells, 2ΔΔ Ct, HYOU1 (HYOU1): 0.90 fold | Relative fold-increase of transcription compared to untreated endothelial cells, 2ΔΔ Ct, MANF (MANF): 1.03 fold

CCCCCCCC(=O)NCCc1ccc(O)c(O)c1 [NOD, N-octanoyl dopamine]
change in body weight before and after the ARF (percent of original body weight) (Lewis rats [3]): no significant change; also recorded: not significantly different from 100% | renal function as measured by serum creatinine concentration (Lewis rats [4]): significantly improved renal function | necrotic tissue in kidney (Lewis rats [5]): less necrotic tissue | number of inflammatory ED1-cells in renal tissue (Lewis rats [5]; P<0.01): significantly reduced number of ED1-cells | TNF-α activity in the renal tissue as measured by PCR (TNF-α): significantly reduced | ESRE-mediated transcription (luciferase chemiluminescence) [1]: strongly induce ESRE-mediated transcription | Relative fold-increase of transcription compared to untreated endothelial cells, 2ΔΔ Ct, DDIT3 (DDIT3): 37.80 fold | Relative fold-increase of transcription compared to untreated endothelial cells, 2ΔΔ Ct, HSPA5 (HSPA5): 11.40 fold | Relative fold-increase of transcription compared to untreated endothelial cells, 2ΔΔ Ct, HYOU1 (HYOU1): 5.17 fold | Relative fold-increase of transcription compared to untreated endothelial cells, 2ΔΔ Ct, MANF (MANF): 4.53 fold | UPR gene transcription under hypoxic conditions (UPR target genes; hypoxic): significantly higher levels of transcription | UPR gene transcription under normoxic conditions (UPR target genes; normoxic): only NOD induced UPR gene transcription | inhibition of PDI activity [6]: inhibits PDI in a dose-dependent manner | LDH activity (LDH release, OD490) compared to untreated cell control (Md) [2]: significantly lower | anti-VCAM-1 antibody binding (TNF-α mediated VCAM-1 expression) (VCAM-1): in the absence of A-NOD or NOD showed strong anti-VCAM-1 antibody binding in comparison to the cells co-treated with A-NOD or NOD | anti-HO1 antibody binding (HO1 (heme oxygenase-1)): showed anti-HO1 antibody binding | action on TRPV-1-receptors (TRPV-1-receptors): agonist

CCCCCCCC(=O)NCCc1ccc(O)cc1 [NOT, N-[2-(4-hydroxyphenyl)ethyl]octanamide]
Relative fold-increase of transcription compared to untreated endothelial cells, 2ΔΔ Ct, DDIT3 (DDIT3): 1.12 fold | Relative fold-increase of transcription compared to untreated endothelial cells, 2ΔΔ Ct, HSPA5 (HSPA5): 0.94 fold | Relative fold-increase of transcription compared to untreated endothelial cells, 2ΔΔ Ct, HYOU1 (HYOU1): 1.26 fold | Relative fold-increase of transcription compared to untreated endothelial cells, 2ΔΔ Ct, MANF (MANF): 1.08 fold

CC(C)(C)C(=O)NCCc1ccc(O)c(O)c1 [NPD, N-[2-(3,4-dihydroxyphenyl)ethyl]tert-butylamide]
LDH activity (LDH release, OD490) compared to untreated cell control (Md) [2]: significantly lower

NCCc1ccc(O)c(O)c1 [dopamine, 4-(2-aminoethyl)benzene-1,2-diol]
body weight lost due to the ARF (Lewis rats [3]; osmotic minipump): ~11%
